Laboratory results as given in patent US8642593B2, “2,4-pyrimidinediamine compounds and prodrugs and their uses” (Rigel Pharmaceuticals, Inc., priority 2009, dated 2014).
Read-outs that look alike come from different tables or passages of the source.

Assays:
[1] = test system: mast cell activation induced by FcγR cross-linking (CHMC cells); assay: LD Tryptase CHMC: tryptase release assay; assay type: cell-based, Human; conditions: for inhibition in tryptase assay, in words: prodrug
Procedure: Compounds are assayed for inhibition of mast cell activation induced by FcγR cross-linking by measuring the activity of tryptase released upon degranulation as follows:
Human mast cells are cultured and differentiated from CD38-negative progenitor cell as described in U.S. Patent Publication No. 2005/0234049, which is hereby incorporated herein by reference in its entirety. For example, 65 μL of various concentrations of the test compound are prepared in MT (137 mM NaCl, 2.7 mM KCl, 1.8 mM CaCl2, 1.0 mM MgCl2, 5.6 mM Glucose, 20 mM Hepes (pH 7.4), 0.1% Bovine Serum Albumin, (Sigma, #A4503)) containing 2% MeOH and 1% DMSO, or control buffer are added to duplicate 96-well V-bottom plates. Pelleted and re-suspended (in warm MT) CHMC cells (65 μL) are added to each 96-well plate, mixed and incubated for 1 hour at 37° C. […] MT (25 μL) is added to control wells. After a 60-minute incubation at 37° C., cells and cell debris were pelleted by centrifugation at 1000 rpm for 10 min and tryptase and leukotriene C4 levels are measured.
To measure tryptase levels, 25 μL of supernatant from each well is transferred to a fresh 96-well black bottom plate, to which 100 μL of fresh tryptase substrate solution [(Z-Ala-Lys-Arg-AMC2TFA; Enzyme Systems Products, #AMC-246)]1:2000 in tryptase assay buffer [0.1M Hepes (pH 7.5), 10% w/v Glycerol, 10 μM Heparin (Sigma H-4898) 0.01% NaN3] is added. After 30 minutes incubation at room temperature, the optical density of the plates is measured at 355 nm/460 nm on a spectrophotometric plate reader.
Compounds of the disclosure were assayed for their ability to inhibit mast cell activation induced by FcγR cross-linking by measuring the activity of tryptase released upon degranulation.

[2] = test system: allergen induced basophil degranulation; assay: CD63 Assay (BASOTEST, FACS, whole blood, anti-IgE); assay type: cell-based; conditions: whole blood, anti-IgE; Table 2, unit inferred
Procedure: Compounds are tested for the ability to inhibit allergen induced basophil degranulation. The BASOTEST® kit (Orpegen Pharma GmbH, #10-0500) is used in this assay. In a 5 mL FACS tube 105 μL of Heparinized whole blood, 25 μL of test compound solution (in DMSO) are incubated at room temperature for 30-60 minutes. To induce degranulation, 20 μL stimulation buffer (Reagent B) is added, and the tube is incubated for 10 min in a 37° C. water bath. Then, 100 μL of anti-IgE (2 μg/mL) is added, or 100 µL of washing solution (reagent A) is added (i.e., as a negative control). The tube is incubated for 20 min in a 37° C. water bath. Degranulation is then stopped by incubation on ice for 5 min. 20 μL of staining reagent (reagent F) is added, and the tube is incubated on ice in the dark for 20 min. 2 mL of room temperature lysing solution is added, and the tube is incubated at room temperature for 10 min. The tubes are spun down at 4° C. for 5 min at 1600 rpm, and the supernatant is discarded. 3 mL washing solution (reagent A) is added, and the tubes spun down at 4° C. for 5 min at 1600 rpm, and the supernatant is discarded. 200 μL washing solution is added to the remaining cell pellet, and the samples are incubated on ice in the dark until analysis (within 2 h). Analysis is performed using flow cytometry at 488 nm using the conditions specified in the BASOTEST® kit instructions to determine percentage of activated basophilic granulocytes.

[3] = human mast cells, anti-IgG stimulation, read-out: IC50 (LD Tryptase CHMC)

SMILES | IC50 ([1]; Homo sapiens, Mast cell, Table 2, unit inferred, read-out: LD Tryptase CHMC) [µM] | IC50 [2] [µM] | IC50 [1, 3] [µM] | inhibition in tryptase assay, in words [1]
COc1cc(Nc2ncc(F)c(Nc3ccc4c(n3)NC(=O)C(C)(C)O4)n2)cc(OC)c1OC [N4-(2,2-Dimethyl-3-oxo-4H-5-pyrido[1,4]oxazin-6-yl)-5-fluoro-N2-(3,4,5-trimethoxyphenyl)-2,4-pyrimidinediamine, reference compound] | 0.04 | 0.93 |  | 
CC1(C)Oc2ccc(Nc3nc(Nc4ccc(N5CCOCC5)nc4)ncc3F)nc2N(COP(=O)([O-])[O-])C1=O.[Na+].[Na+] [Compound 2, N4-[2,2-Dimethyl-4-[(dihydrogenphosphonoxy)methyl]-3-oxo-5-pyrido[1,4]oxazin-6-yl]-5-fluoro-N2-(6-morpholinopyridin-3-yl)-2,4-pyrimidinediamine disodium salt] |  |  | 21.9 | only micromolar inhibition
CC1(C)Oc2ccc(Nc3nc(Nc4ccc(N5CCOCC5)cc4)ncc3F)nc2N(COP(=O)([O-])[O-])C1=O.[Na+].[Na+] [Compound 4, N4-[2,2-Dimethyl-4-[(dihydrogenphosphonoxy)methyl]-3-oxo-5-pyrido[1,4]oxazin-6-yl]-5-fluoro-N2-(4-morpholinophenyl)-2,4-pyrimidinediamine disodium salt] |  |  | 2.36 | only micromolar inhibition
